Source: PubChem BioAssay AID1963831 (Molecular Pharmacology Branch, DTP, NCI, 2024)
“And” between values parts separate entries of the source, which are not always exact repeats. Equal values may be shown once. Blank lines part the entries; values can stand above or below the compound they belong to.

System: 889142-216-R-J1-PDC complex spheroid viability
Assay: Anticancer human tumor 889142-216-R-J1-PDC patient-derived bladder carcinoma cell line growth inhibition [POLQ]
Conditions: for viability, T/C: stronger effect = lower value
Description: Multicellular complex tumor spheroid response to Polymerase (POL) inhibitors (novobiocin, ART-558, RP6685) in combination with a variety of drugs and investigational agents in selected tumor cell lines
The POL inhibitors (novobiocin, ART-558, and RP6685) were evaluated both individually and in combination with standard of care and investigational anticancer small molecules within a complex spheroid model of solid tumors. . Complex spheroids include a stromal component modeled by human endothelial cells (HUVEC) and fibroblasts modeled by human mesenchymal stem cells (MSCs). The concentration ranges selected for each drug and investigational agent were based upon clinically achievable concentrations if the clinical Cmax of the agent was known.
Compounds. The drugs and investigational agents: novobiocin (NSC847541), ART-558 (NSC835418), RP-6685 (NSC848927), peposertib (NSC802822), ceralasertib (NSC780249), elimusertib (NSC800525), camonsertib (NSC841442), AZD-1390 (NSC803789), olaparib (NSC753686), talazoparib (NSC767125), rucaparib (NSC756644), sotorasib (NSC818433), MRTX-1133 (NSC836407), SN-38 (NSC673596), topotecan (NSC609699), epotoside (NSC141540), doxorubicin (NSC123127), gemcitabine (NSC613327), 5-fluorouracil (NSC19893), paclitaxel (NSC125973), vemurafenib (NSC761431), MSA-2 (NSC828583), SN-011 (NSC837082), adavosertib (NSC754352), prexasertib (NSC758257), carboplatin (NSC241240) and oxaliplatin (NSC266046), were obtained from the National Cancer Institute (NCI) Developmental Therapeutics Program Chemical Repository (21). The FDA-approved anticancer drug set is available from the Developmental Therapeutics Program at https://dtp.cancer.gov/organization/dscb/obtaining/. […] The stock solutions were prepared in dimethyl sulfoxide (DMSO, Sigma-Aldrich, St. Louis, MO, cat. D2650), except for the platinum compounds which were prepared in saline (Quality Biological, Gaithersburg, MD, cat. 114-055-101), at 800-fold the tested concentration and stored at -70 degrees C prior to their use. All drugs and investigational agents were tested over a range starting from a high concentration at or near the clinical Cmax and decreasing in half-log increments. If the clinical Cmax for an agent had not been determined, the highest concentration tested was 10 microM, except for SN-38, which was tested at a high concentration of 1 microM.
Cell Culture. All cells were maintained in an incubator at 37 degrees C and 5% CO2 with 95% humidity. The PDC lines were cultured according to standard operating procedures established by the NCI PDMR (https://pdmr.cancer.gov). Table 3 of the manuscript, lists the cell lines along with the number of the three cell types plated to form the mct-spheroids and media for tumor cell growth. After thawing, all PDC lines, except 997537-175-T-J1-PDC and 415267-285-R-J2-PDC, were cultured in Matrigel-coated flasks prepared with a working solution of 1X Ham's F-12 nutrient mix, without supplementation (Thermo Fisher Scientific, cat. 11765054), 100 U/mL penicillin-streptomycin (Thermo Fisher Scientific, cat. 15140122), and 2.5% Matrigel (Corning Inc., Corning, NY, cat. 354248) for the first three passages. The two PDC lines 997537-175-T-J1-PDC and 415267-285-R-J2-PDC were cultured on uncoated flasks. The 857933-349-R-J2-PDC line was cultured in 6C/Colon 1B media containing advanced DMEM/F-12 (Thermo Fisher Scientific, cat. 12634028), 10 mM HEPES (Thermo Fisher Scientific, cat. 15630080), 1X GlutaMAX supplement (Thermo Fisher Scientific, cat. 35050061), 0.1 mg/mL primocin (InvivoGen, San Diego, CA, cat. ant-pm-2), 10% defined fetal bovine serum, heat inactivated (HyClone Laboratories Inc., Logan, UT, cat. SH30070.03HI), 50% L-WRN conditioned media (ATCC, cat. CRL-3276), 1.25 mM N-Acetyl-L-cysteine (Sigma-Aldrich, cat. A9165), 10 mM nicotinamide (Sigma-Aldrich, cat. N0636), 1X B-27 supplement (Thermo Fisher Scientific, cat. 17504044), 1X N-2 supplement (Thermo Fisher Scientific, cat. […]
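Further: spheroids exposed to compounds for seven days.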
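Wherever viability, T/C is given: 100% = DMSO vehicle control viability.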

IC50 (curve of compound): 10.9 nM and 17.3 nM
SMILES: CCc1c2c(nc3ccc(O)cc13)-c1cc3c(c(=O)n1C2)COC(=O)[C@]3(O)CC
viability, T/C (compound 0.00316 µM): 58.4% and 64.9%
viability, T/C (compound 0.01 µM): 50.7% and 50.6%
viability, T/C (compound 0.0316 µM): 40.2% and 47.8%
viability, T/C (compound 0.1 µM): 33.7% and 31.8%
viability, T/C (compound 0.316 µM): 29.5% and 27.7%
viability, T/C (compound 1 µM): 11.7% and 9.45%

SMILES: CC1COCCN1c1cc(-c2ccnn2C)c2ccnc(-c3ccn[nH]3)c2n1 (stereo unspecified)
viability, T/C (compound 0.0316 µM): 69.8% and 79.1% and 76.9%
viability, T/C (compound 0.1 µM): 54.8% and 52.9% and 67.8%
viability, T/C (compound 0.316 µM): 47% and 40.5% and 47.4%
viability, T/C (compound 1 µM): 38.7% and 46.3% and 39.9%
viability, T/C (compound 3.16 µM): 32.2% and 36.3% and 36.2%
viability, T/C (compound 10 µM): 28.1% and 25% and 30.5%
IC50 (curve of compound): 206 nM and 182 nM and 308 nM

SMILES: CC(=O)O[C@H]1C(=O)[C@@]2(C)[C@H]([C@H](OC(=O)c3ccccc3)[C@]3(O)C[C@H](OC(=O)[C@H](O)[C@@H](NC(=O)c4ccccc4)c4ccccc4)C(C)=C1C3(C)C)[C@]1(OC(C)=O)CO[C@@H]1C[C@@H]2O + COC1C(OC(N)=O)C(O)C(Oc2ccc3c(O)c(NC(=O)c4ccc(O)c(CC=C(C)C)c4)c(=O)oc3c2C)OC1(C)C
IC50 (curve of first compound, second compound 0.0316 µM): < 9.49 nM
IC50 (curve of first compound, second compound 0.1 µM): < 9.49 nM
IC50 (curve of first compound, second compound 0.316 µM): < 9.49 nM
IC50 (curve of first compound, second compound 1 µM): < 9.49 nM
IC50 (curve of first compound, second compound 3.16 µM): < 9.49 nM
IC50 (curve of first compound, second compound 10 µM): < 9.49 nM
viability, T/C (second compound 0.0316 µM, first compound 0.00949 µM): 42%
viability, T/C (second compound 0.0316 µM, first compound 0.03 µM): 37.3%
viability, T/C (second compound 0.0316 µM, first compound 0.0949 µM): 36.2%
viability, T/C (second compound 0.0316 µM, first compound 0.3 µM): 35%
viability, T/C (second compound 0.0316 µM, first compound 0.949 µM): 40.6%
viability, T/C (second compound 0.0316 µM, first compound 3 µM): 43%
viability, T/C (second compound 0.1 µM, first compound 0.00949 µM): 40%
viability, T/C (second compound 0.1 µM, first compound 0.03 µM): 29.9%
viability, T/C (second compound 0.1 µM, first compound 0.0949 µM): 40.6%
viability, T/C (second compound 0.1 µM, first compound 0.3 µM): 34.2%
viability, T/C (second compound 0.1 µM, first compound 0.949 µM): 37.4%
viability, T/C (second compound 0.1 µM, first compound 3 µM): 38.5%
viability, T/C (second compound 0.316 µM, first compound 0.00949 µM): 38.3%
viability, T/C (second compound 0.316 µM, first compound 0.03 µM): 37.2%
viability, T/C (second compound 0.316 µM, first compound 0.0949 µM): 41.3%
viability, T/C (second compound 0.316 µM, first compound 0.3 µM): 32.9%
viability, T/C (second compound 0.316 µM, first compound 0.949 µM): 34%
viability, T/C (second compound 0.316 µM, first compound 3 µM): 37.4%
viability, T/C (second compound 1 µM, first compound 0.00949 µM): 39.9%
viability, T/C (second compound 1 µM, first compound 0.03 µM): 40%
viability, T/C (second compound 1 µM, first compound 0.0949 µM): 43.9%
viability, T/C (second compound 1 µM, first compound 0.3 µM): 37.5%
viability, T/C (second compound 1 µM, first compound 0.949 µM): 35.3%
viability, T/C (second compound 1 µM, first compound 3 µM): 39.7%
viability, T/C (second compound 3.16 µM, first compound 0.00949 µM): 39.1%
viability, T/C (second compound 3.16 µM, first compound 0.03 µM): 38.1%
viability, T/C (second compound 3.16 µM, first compound 0.0949 µM): 39%
viability, T/C (second compound 3.16 µM, first compound 0.3 µM): 39.7%
viability, T/C (second compound 3.16 µM, first compound 0.949 µM): 41.2%
viability, T/C (second compound 3.16 µM, first compound 3 µM): 40.4%
viability, T/C (second compound 10 µM, first compound 0.00949 µM): 41.1%
viability, T/C (second compound 10 µM, first compound 0.03 µM): 38.1%
viability, T/C (second compound 10 µM, first compound 0.0949 µM): 40.4%
viability, T/C (second compound 10 µM, first compound 0.3 µM): 45.2%
viability, T/C (second compound 10 µM, first compound 0.949 µM): 38.5%
viability, T/C (second compound 10 µM, first compound 3 µM): 39.5%
